The record followed here is ChEMBL document CHEMBL1201862, “PubChem BioAssay data set” (2004).

Activity calls are given as the source filed them.

The target of data set [1] is Cytochrome P450 2C19 (Homo sapiens, UniProt P33261). Nature of the data set: Cytochrome panel assay with activity outcomes. Panel member name: p450-cyp2c19 Compounds with AC50 equal or less than 10 uM are considered active. The format is functional.
Data set [2] concerns the target T1, Corticotropin-releasing factor receptor 2/Corticotropin-releasing factor-binding protein (Homo sapiens, UniProt P24387+Q13324).
T1 sequence (Q13324 whole entry): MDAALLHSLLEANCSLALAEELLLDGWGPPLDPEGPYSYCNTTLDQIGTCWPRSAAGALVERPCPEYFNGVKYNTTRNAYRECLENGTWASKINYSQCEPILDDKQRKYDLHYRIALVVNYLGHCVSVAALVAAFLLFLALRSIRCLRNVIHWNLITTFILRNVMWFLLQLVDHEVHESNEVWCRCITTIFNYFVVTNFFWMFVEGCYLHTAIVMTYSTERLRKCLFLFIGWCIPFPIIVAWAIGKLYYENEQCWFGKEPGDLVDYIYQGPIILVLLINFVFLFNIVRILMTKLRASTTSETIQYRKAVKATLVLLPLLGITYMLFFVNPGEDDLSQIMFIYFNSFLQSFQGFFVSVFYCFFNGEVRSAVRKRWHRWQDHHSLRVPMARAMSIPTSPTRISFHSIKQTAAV
T1 sequence (P24387 whole entry): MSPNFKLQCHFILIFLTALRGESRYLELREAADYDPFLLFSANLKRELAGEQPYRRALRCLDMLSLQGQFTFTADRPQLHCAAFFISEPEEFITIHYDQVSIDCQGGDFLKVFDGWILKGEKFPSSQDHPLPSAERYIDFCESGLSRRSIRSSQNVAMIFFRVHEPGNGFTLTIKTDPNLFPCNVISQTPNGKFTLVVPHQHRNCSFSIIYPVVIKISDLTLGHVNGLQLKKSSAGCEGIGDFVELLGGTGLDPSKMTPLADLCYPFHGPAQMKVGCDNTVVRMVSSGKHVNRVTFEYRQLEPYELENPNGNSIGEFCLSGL
Kind of data set: Dose Response confirmation of uHTS hits for small molecule antagonists of the CRF-binding protein and CRF-R2 receptor complex. In kind it is functional. The note with it: read-out: IC50_Mean.

The target of data set [3] is T1, Corticotropin-releasing factor receptor 2/Corticotropin-releasing factor-binding protein. Kind of data set: activators of CRF receptor 2 with binding protein – uHTS hits, confirmation (AID 602473). The format is functional. The conditions noted are these: read-out: EC50_Mean.
Data set [4] concerns the target Cytochrome P450 2C9 (Homo sapiens, UniProt P11712).
Data set [5] is described as follows: cells. In kind it is functional, cell-based.
The nature of data set [6]: cells. The format is functional, cell-based. This is another data set of the same source.
The nature of data set [7]: Shn3 3'UTR reporter inhibitors, dose response, cell-based, Clone20 osteoblasts, firefly luciferase, cherry-picked (AID 624132).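 Note: firefly luciferase luminescence from reporter carrying the Shn3 3'UTR in osteoblasts.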 The format is functional.
The nature of data set [8]: HepG2 cell cytotoxicity, dose response, cytotoxicity control for Shn3 inhibitor project, CellTiter-Glo, cherry-picked (AID 624134). The format is functional, cell-based.
Data set [9] in a line: control 3'UTR Renilla luciferase suppression, dose response, counter-screen for Shn3 inhibitor project, cell-based, Clone20-Shn3RL, cherry-picked (AID 624133). The format is functional. On the technique in general: The purpose of a counterscreen is to sort out artefacts and off-target activity.
Data set [10] can be described thus: inhibitors of intracellular T. cruzi replication, confirmation, NIH3T3 host cells, beta-gal luminescence (AID 2044).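 Note: intracellular parasites grown in NIH/3T3 mouse fibroblasts as host cells; luminescent beta-galactosidase reporter signal from transgenic T. cruzi replicating inside host cells; inhibitors lower the luminescence signal.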 The format is functional, cell-based.
The nature of data set [11]: cytotoxicity toward NIH3T3 fibroblasts, dose response, counter-screen, cell-based, ATP luminescence, mouse fibroblasts (AID 2010).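 Note: cells exposed to compound for about 90 hours before reading.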 The format is functional.
The nature of data set [12]: HEK293T cytotoxicity, dose response, cytotoxicity control for miR-122 modulator project, cell-based, inhibitor set, cherry-pick, set 2 (AID 720697). The format is functional.
A short description of data set [13]: miR-122 activators in hepatoma reporter cells, dose response, cell-based, Huh7 psiCHECK-miR122, Renilla luciferase, cherry-picked (AID 651956).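 Note: huh7 hepatoma cells stably carrying a psiCHECK-2 miR-122 sensor plasmid; renilla luciferase signal reporting endogenous miR-122 activity after 48 h compound exposure.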 The format is functional.
The target in data set [14] is T2, Cytochrome P450 1A2 (Homo sapiens, UniProt P05177).
T2 sequence (P05177 whole entry): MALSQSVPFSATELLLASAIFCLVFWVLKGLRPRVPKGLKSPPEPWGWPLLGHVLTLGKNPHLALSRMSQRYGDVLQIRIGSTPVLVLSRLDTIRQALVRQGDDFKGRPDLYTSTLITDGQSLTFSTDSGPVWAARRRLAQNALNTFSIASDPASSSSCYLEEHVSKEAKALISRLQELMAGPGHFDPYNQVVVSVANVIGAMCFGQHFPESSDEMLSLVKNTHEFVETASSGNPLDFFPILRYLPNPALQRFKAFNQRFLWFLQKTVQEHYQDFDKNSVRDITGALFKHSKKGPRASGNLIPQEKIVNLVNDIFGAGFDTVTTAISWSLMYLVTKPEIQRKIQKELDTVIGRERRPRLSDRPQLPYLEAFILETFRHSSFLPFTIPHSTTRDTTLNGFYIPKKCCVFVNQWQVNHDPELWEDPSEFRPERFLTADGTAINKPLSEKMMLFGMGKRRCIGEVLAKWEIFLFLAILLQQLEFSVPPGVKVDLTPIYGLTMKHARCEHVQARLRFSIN

Data set [15] is described as follows: LGR2 antagonists, dose response, cell-based, HEK293, CRE-luciferase reporter, cherry pick, set 2 (AID 743343).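 Note: transfected cells were stimulated with diluted bursicon conditioned medium after compound addition.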 In kind it is functional.
The nature of data set [16]: MC4R antagonists, dose response, counter-screen for LGR2 antagonist project, cell-based, plate reader, cherry pick (AID 743444).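 Note: transfected HEK 293 cells stimulated with alpha-MSH peptide; potency of inhibitors of the alpha-MSH evoked signal.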 The format is functional.
The test system of data set [17] is Streptococcus sp. 'group A'. Kind of data set: growth inhibition of control SK(-) GAS strain, dose response, counter-screen for streptokinase expression inhibitor project, luminescence, kanamycin, BacTiterGlo, confirmation (AID 1900). In kind it is functional, organism-based.
Data set [18] has as its target T3, Streptokinase A (Streptococcus pyogenes serotype M1, UniProt P10520).
T3 sequence (P10520 whole entry): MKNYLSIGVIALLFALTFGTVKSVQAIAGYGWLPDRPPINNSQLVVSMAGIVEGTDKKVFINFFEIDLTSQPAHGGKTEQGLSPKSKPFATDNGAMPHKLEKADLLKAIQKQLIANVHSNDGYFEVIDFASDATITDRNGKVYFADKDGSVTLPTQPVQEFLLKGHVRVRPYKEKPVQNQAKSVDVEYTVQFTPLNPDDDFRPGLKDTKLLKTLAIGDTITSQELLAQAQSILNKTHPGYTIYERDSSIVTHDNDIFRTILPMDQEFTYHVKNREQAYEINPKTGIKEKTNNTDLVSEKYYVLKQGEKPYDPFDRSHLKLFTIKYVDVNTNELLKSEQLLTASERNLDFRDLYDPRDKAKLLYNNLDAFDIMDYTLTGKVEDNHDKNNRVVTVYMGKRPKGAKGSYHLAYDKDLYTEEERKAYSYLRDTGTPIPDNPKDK
Kind of data set: S. pyogenes streptokinase expression inhibitors, potency, dose response, plasminogen activation absorbance, OD405 (AID 1914).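 Note: secreted streptokinase activity via plasminogen activation per viability signal from cell pellet.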 In kind it is functional, Streptococcus pyogenes M1 GAS.

Data set [19] can be described thus: growth suppression of PTEN-null colon cells, dose response, cell-based, HCT116 PTEN knockout (AID 1047).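 Note: HCT116 colon tumor cells with PTEN knocked out; cells exposed to compound for 60 hours before readout; potency for loss of cell viability measured by luminescence.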 In kind it is functional.
Data set [20] in a line: growth suppression of beta-catenin-knockout colon cells, dose response, cell-based, HCT116, human colon tumor (AID 1045).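 Note: HCT116 colon tumor cells with beta catenin knocked out; cells exposed to compound for 60 hours.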 In kind it is functional.
Data set [21] concerns Streptococcus. Kind of data set: Group A Streptococcus viability loss, dose response, counter-screen for streptokinase expression inhibitor project, luminescence, BacTiterGlo (AID 1915).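 Note: potency for reduction of bacterial viability or growth.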 In kind it is functional, organism-based.
The nature of data set [22]: Luminescence Cell-Based Dose Retest to Confirm Inhibitors of Cancer Stem Cells. [Related pubchem assays (depositor defined):AID2717, AID2721]. In kind it is functional. The note with it: Homo sapiens.
In data set [23] the test system is INS1. Nature of the data set: beta cell apoptosis inhibitors, cytokine rescue, dose response, luminescence, retest (AID 449756).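 Note: cell death triggered by IL-1 beta plus TNF-alpha plus IFN-gamma mixture; protective hits raise ATP signal compared with cytokine alone wells.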 In kind it is functional, cell-based. The conditions noted are these: Rattus norvegicus.
Data set [24] has as its target Cytochrome P450 2D6 (Homo sapiens, UniProt P10635).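 Note: CYP2D6 member of a cytochrome P450 panel assay.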

Chain of Cytochrome P450 2C9 (P11712 whole entry): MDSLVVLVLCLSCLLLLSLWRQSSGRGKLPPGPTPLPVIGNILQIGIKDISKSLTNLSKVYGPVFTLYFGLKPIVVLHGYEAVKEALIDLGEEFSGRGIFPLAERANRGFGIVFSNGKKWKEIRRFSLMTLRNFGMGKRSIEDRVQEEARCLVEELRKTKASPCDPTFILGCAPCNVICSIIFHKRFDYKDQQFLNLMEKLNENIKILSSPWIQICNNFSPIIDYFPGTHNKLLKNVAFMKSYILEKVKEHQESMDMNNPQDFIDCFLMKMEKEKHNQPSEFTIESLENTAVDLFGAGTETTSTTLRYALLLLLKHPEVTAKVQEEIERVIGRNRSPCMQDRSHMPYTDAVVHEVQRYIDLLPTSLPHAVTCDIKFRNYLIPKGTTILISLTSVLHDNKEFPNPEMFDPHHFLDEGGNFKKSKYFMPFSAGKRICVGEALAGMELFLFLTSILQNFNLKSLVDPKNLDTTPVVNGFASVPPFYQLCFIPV
Chain of Cytochrome P450 2C19 (P33261 whole entry): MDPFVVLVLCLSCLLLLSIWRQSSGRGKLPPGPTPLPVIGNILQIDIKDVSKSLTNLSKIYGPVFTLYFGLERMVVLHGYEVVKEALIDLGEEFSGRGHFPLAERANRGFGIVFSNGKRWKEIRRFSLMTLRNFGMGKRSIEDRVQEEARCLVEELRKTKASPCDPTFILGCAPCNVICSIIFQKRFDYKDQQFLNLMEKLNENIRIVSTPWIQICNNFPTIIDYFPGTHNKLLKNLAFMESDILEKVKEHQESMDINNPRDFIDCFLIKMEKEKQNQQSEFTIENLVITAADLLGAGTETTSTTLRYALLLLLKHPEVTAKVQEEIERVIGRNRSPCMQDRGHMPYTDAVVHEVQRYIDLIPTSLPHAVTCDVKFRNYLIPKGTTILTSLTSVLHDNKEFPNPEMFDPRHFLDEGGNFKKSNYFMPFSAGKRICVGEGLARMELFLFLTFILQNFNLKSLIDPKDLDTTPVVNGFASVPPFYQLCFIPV
Chain of Cytochrome P450 2D6 (P10635 whole entry): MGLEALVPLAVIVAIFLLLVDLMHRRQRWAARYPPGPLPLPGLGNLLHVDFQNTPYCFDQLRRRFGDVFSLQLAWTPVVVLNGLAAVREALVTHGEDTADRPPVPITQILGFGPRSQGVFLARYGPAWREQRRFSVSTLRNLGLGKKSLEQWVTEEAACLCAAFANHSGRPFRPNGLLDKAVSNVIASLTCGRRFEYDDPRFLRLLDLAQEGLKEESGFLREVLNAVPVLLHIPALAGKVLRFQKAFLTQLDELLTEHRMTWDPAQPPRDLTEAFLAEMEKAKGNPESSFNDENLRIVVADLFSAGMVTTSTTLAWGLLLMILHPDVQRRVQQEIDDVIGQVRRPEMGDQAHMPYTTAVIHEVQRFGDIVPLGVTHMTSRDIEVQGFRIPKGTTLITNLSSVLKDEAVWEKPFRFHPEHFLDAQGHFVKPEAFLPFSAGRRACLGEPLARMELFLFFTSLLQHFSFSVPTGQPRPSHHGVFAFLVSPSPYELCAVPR

As to `Cc1cc2nc(C)n(CCCN)c2cc1C.Cl`, the AC50 result in data set [1] and in data set [4] was “inconclusive” throughout. In addition, the IC50 in [2] was > 47.1 µM (inactive). The EC50 in [3] was > 53 µM (inactive).

`CCCSCCCNC(=O)c1ccccc1NC(=O)C1=CSCCO1`: the figures for the EC50 in data set [5] and in data set [6] were > 350 µM (not active) and 297 µM (active), respectively.

In the case of `O=C(CN1CCC(C(=O)c2ccc(Cl)cc2)CC1)Nc1ccc2c(c1)OCCO2`, the EC50 in data set [5] and in [6] was > 350 µM (not active) in each case.

Regarding `CC(C)CC(N)c1csc(NC(=O)c2cc(C(C)(C)C)nn2Cc2ccccc2)n1` (centres undefined), the AC50 is 4.85 µM (active) in [7], 8.75 µM (active) in [8] and 20.8 µM (active) in data set [9].

For `CC1=Nc2nnnn2C(c2cccnc2)/C1=C(\O)OC1CCCCC1` (centres undefined), the EC50 in [10] is 1.79 µM (active); in data set [11], > 60 µM (not active). Moreover, the AC50 in data set [7] is 3.23 µM (active); in data set [8], > 70 µM (inactive); in [9], 3.92 µM (active).

Regarding `COc1ccc(CN2CCOC2=O)cc1OC`, the AC50 in data set [12] is 9.25 µM (active).

With `C[C@H](CO)N1C[C@H](C)[C@@H](CN(C)Cc2ccc(Oc3ccccc3)cc2)Oc2ncc(-c3cncnc3)cc2C1=O`, the AC50 is 26 µM (active) in data set [13] and 0.511 µM (active) in data set [12].

Consider `CC(C)(C)NC(=O)CN(Cc1ccc2c(c1)OCO2)C(=O)CNS(=O)(=O)c1ccc(F)cc1`, for which the EC50 in [5] and in data set [6] was > 350 µM (not active) each time.

For `O=C(/C=C/c1cc2c(cc1Br)OCO2)NCc1ccc(Cl)cc1`, the AC50 in data set [1] (read-out: AC50) is 17.8 µM (inconclusive); in data set [4] it was “inconclusive”.

As for `COc1ccc(S(=O)(=O)Nc2cccc(Cl)c2)cc1OC`, the AC50 in [14] was 31.6 µM (inconclusive); in [4] it was “inconclusive”.

For `Cc1c(NC(=O)c2ccc(-c3ccccc3)cc2)cccc1C(=O)O`, the AC50 is 17.1 µM (active) in data set [15] and 13.5 µM (active) in [16].

On to `Cc1nn(Cc2c(Cl)cccc2Cl)c(C)c1NC(=O)c1cn(-c2ccccc2)nc1-c1ccccc1`, for which the EC50 in data set [17] was 8.01 µM (active); in data set [18] it was > 150 µM (not active); in data set [19], 4.36 µM (active); in [20], 4.04 µM (active); in [21], 21.6 µM (active). Also, the AC50 was 1.01 µM (active) in data set [22], 2.46 µM (active) in [23], 55 µM (active) in data set [7] and 25.8 µM (active) in data set [9].

In the case of `COc1cc(/C=C/C(=O)Nc2cc(C(F)(F)F)ccc2Cl)cc(OC)c1OC`, the AC50 was 5.62 nM (inconclusive) in [24], 15.8 µM (inconclusive) in [14] and “inconclusive” in data set [4].

As usually defined, the AC50 is the concentration at which the activity in the assay is half-maximal.
